Laboratory results published in ChEMBL document CHEMBL1909046, “DrugMatrix in vitro pharmacology data”.

Key:
[1] = target: T1, Alpha-2A adrenergic receptor (Homo sapiens, UniProt P08913); format: cell membranes, Sf9, Membrane; also: in other assays of this panel Not Active means under 50% inhibition at 10 µM
T1 sequence (P08913 whole entry): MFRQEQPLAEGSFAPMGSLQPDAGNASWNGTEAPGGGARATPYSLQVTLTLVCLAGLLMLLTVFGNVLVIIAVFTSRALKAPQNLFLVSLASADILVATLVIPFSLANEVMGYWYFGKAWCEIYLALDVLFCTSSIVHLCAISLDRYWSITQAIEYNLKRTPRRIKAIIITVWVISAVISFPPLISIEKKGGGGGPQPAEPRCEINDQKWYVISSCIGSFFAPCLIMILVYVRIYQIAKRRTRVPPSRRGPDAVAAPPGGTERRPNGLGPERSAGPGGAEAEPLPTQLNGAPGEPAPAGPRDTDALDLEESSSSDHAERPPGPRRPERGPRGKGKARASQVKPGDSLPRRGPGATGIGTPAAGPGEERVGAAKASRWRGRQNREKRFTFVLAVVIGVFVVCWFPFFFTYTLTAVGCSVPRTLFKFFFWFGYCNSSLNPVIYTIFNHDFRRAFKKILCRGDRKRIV

[2] = target: Aldo-keto reductase family 1 member B1 (Rattus norvegicus, UniProt P07943); assay: biochemical; format: tissue-based, Lens of camera-type eye;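 also: inhibition of aldose reductase enzyme activity, measured with DL-glyceraldehyde as the substrate; in other assays of this panel Not Active means under 50% inhibition at 10 µM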
[3] = DRUGMATRIX: Sigma2 radioligand binding (ligand: [3H] Ifenprodil); format: cell membranes, Rattus norvegicus, Wistar, Brain, Membrane; conditions: Not Active = under 50% inhibition at 10 µM
[4] = target: Platelet-activating factor receptor (Homo sapiens, UniProt P25105); format: tissue-based; also: in other assays of this panel Not Active means under 50% inhibition at 10 µM
[5] = target: Receptor tyrosine-protein kinase erbB-2 (Homo sapiens, UniProt P04626); assay: biochemical; format: cell-based, Insect cells;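 also: inhibition of HER2 kinase enzyme activity, measured with Poly(Glu:Tyr) as the phosphorylation substrate; in other assays of this panel Not Active means under 50% inhibition at 10 µM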
[6] = target: T2, Receptor-type tyrosine-protein phosphatase C (Homo sapiens, UniProt P08575); design: species or system Escherichia coli
T2 sequence (P08575 whole entry): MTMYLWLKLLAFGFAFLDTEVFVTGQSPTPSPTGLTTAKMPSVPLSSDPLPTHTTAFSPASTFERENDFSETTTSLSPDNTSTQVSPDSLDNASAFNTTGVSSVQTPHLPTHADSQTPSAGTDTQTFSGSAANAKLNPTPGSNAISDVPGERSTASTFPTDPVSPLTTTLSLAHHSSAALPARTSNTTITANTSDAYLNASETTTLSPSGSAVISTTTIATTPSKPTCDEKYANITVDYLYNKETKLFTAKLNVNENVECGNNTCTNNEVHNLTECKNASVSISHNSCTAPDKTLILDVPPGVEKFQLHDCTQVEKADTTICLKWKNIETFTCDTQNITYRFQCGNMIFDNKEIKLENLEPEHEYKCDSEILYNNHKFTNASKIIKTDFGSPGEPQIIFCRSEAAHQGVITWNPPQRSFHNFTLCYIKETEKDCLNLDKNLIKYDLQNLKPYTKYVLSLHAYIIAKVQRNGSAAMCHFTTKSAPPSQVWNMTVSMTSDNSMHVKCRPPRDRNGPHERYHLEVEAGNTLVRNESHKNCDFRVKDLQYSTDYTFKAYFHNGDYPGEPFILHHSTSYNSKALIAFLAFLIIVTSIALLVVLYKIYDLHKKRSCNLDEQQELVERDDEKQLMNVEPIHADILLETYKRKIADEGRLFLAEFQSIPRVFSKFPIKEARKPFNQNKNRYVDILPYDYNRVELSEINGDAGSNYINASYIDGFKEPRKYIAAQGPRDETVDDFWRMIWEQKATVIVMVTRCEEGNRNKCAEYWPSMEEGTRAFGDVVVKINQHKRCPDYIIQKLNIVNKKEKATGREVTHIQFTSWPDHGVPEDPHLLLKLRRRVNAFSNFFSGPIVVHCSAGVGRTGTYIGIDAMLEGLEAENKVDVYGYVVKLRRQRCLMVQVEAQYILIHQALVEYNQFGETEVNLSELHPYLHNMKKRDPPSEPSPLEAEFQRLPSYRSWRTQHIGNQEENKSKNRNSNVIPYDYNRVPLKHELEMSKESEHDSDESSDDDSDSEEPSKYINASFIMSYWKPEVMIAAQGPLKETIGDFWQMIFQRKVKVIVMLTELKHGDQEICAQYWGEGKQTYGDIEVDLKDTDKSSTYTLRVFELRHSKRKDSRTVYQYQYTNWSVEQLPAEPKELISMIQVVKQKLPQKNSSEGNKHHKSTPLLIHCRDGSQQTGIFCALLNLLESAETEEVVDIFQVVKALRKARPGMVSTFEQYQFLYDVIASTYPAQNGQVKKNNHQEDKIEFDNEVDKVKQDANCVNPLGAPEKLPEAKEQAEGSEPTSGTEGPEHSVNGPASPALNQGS

Cytochrome P450 2E1 = Cytochrome P450 2E1 (Homo sapiens, UniProt P05181); conditions: bti-tn-5b1-4; also: in other assays of this panel Not Active means under 50% inhibition at 10 µM
Sequence of Cytochrome P450 2E1 (P05181 whole entry): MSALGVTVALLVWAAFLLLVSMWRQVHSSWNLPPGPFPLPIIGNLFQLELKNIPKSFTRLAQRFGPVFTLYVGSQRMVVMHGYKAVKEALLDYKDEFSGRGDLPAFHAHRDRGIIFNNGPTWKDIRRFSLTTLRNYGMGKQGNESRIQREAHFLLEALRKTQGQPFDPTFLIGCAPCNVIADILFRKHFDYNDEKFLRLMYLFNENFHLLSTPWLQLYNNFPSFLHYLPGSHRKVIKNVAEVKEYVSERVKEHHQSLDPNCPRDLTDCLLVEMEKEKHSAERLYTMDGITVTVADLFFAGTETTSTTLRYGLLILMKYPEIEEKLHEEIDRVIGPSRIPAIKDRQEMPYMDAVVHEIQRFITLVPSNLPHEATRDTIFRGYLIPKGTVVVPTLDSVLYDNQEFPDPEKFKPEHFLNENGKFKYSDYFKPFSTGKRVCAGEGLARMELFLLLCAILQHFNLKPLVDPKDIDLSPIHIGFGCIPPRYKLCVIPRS

Sequence of Receptor tyrosine-protein kinase erbB-2 (P04626 whole entry): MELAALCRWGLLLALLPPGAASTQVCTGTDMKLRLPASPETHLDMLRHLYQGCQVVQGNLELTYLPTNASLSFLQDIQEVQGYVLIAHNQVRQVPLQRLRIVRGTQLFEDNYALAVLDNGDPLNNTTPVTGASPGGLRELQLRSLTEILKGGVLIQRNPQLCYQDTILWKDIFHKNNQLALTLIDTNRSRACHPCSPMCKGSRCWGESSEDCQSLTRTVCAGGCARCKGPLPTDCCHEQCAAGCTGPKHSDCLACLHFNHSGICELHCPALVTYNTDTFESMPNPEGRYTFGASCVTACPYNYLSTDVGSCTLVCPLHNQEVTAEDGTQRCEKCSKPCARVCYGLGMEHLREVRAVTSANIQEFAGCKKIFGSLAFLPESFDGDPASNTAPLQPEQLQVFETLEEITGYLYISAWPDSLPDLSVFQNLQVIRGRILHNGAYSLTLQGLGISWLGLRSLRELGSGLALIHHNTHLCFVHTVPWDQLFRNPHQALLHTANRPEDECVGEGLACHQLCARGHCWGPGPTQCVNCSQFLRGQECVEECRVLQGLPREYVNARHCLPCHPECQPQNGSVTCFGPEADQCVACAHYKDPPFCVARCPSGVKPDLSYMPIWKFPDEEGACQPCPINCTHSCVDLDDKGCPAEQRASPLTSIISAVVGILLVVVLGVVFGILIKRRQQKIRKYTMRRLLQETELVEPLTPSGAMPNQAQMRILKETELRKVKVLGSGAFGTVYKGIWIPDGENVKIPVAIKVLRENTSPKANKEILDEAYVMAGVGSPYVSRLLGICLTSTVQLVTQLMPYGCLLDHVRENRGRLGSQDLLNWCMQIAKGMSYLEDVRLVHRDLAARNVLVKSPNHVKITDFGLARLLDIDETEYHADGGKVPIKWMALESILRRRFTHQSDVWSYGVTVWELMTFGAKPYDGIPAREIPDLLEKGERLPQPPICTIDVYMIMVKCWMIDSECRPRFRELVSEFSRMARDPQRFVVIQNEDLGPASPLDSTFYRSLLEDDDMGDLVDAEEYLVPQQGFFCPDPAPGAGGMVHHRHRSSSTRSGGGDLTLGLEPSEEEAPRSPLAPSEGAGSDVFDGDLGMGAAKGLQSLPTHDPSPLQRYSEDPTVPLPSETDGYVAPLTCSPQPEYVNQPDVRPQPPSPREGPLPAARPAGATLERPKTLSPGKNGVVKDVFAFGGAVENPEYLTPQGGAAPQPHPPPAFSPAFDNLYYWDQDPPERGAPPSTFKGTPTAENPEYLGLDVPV
Sequence of Platelet-activating factor receptor (P25105 whole entry): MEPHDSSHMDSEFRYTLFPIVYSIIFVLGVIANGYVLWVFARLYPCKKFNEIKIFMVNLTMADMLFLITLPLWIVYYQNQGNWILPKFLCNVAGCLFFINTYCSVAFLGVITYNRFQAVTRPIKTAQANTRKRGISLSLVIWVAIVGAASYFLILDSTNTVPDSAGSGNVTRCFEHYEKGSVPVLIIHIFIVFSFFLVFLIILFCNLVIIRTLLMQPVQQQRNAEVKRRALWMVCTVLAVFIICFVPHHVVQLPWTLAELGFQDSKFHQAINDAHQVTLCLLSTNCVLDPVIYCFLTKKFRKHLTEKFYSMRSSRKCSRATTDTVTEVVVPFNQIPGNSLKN

Molecule | IC50 ([1]; sf9) | IC50 [2] | IC50 [3] | Ki [3] | IC50 [4] | IC50 ([5]; read-out: IC50) | IC50 [6] | IC50 (Cytochrome P450 2E1) | Ki (Cytochrome P450 2E1) | IC50 ([5]; insect cells) | IC50 ([1]; read-out: IC50) | Ki ([1]; read-out: Ki) | Ki ([1]; sf9) | Ki [2] | Ki [4] | Ki [6]
CCOc1nc2cccc(C(=O)O)c2n1Cc1ccc(-c2ccccc2-c2nnn[nH]2)cc1 | Not Active | Not Active | Not Active | Not Active | Not Active | 5950 nM | Not Active | Not Active | Not Active | – | – | – | – | – | – | –
O=C(O)CCCc1cccs1 | Not Active | Not Active | Not Active | Not Active | Not Active | – | Not Active | Not Active | Not Active | Not Active | – | – | – | – | – | –
COc1ccccc1N | Not Active | Not Active | Not Active | Not Active | Not Active | – | Not Active | Not Active | Not Active | Not Active | – | – | – | – | – | –
O=C(c1ccccc1F)N1CCC(Cc2ccccc2)CC1 | Not Active | Not Active | Not Active | Not Active | Not Active | – | Not Active | Not Active | Not Active | Not Active | – | – | – | – | – | –
Cc1c(O)cccc1C(=O)N[C@@H](CSc1ccccc1)[C@H](O)CN1C[C@H]2CCCC[C@H]2C[C@H]1C(=O)NC(C)(C)C | Not Active | Not Active | Not Active | Not Active | Not Active | – | Not Active | Not Active | Not Active | Not Active | – | – | – | – | – | –
CC(O)COC[C@H]1O[C@@H]2O[C@H]3[C@H](O)[C@@H](O)[C@@H](O[C@H]4[C@H](O)[C@@H](O)[C@@H](O[C@H]5[C@H](O)[C@@H](O)[C@@H](O[C@H]6[C@H](O)[C@@H](O)[C@@H](O[C@H]7[C@H](O)[C@@H](O)[C@@H](O[C@H]8[C@H](O)[C@@H](O)[C@@H](O[C@H]1[C@H](O)[C@H]2O)O[C@@H]8COCC(C)O)O[C@@H]7COCC(C)O)O[C@@H]6COCC(C)O)O[C@@H]5COCC(C)O)O[C@@H]4COCC(C)O)O[C@@H]3COCC(C)O (stereo partly drawn) [2-HYDROXYPROPYL-BETA-CYCLODEXTRIN] | Not Active | Not Active | Not Active | Not Active | Not Active | – | Not Active | Not Active | Not Active | Not Active | – | – | – | – | – | –
NC(=O)c1cccc(N)c1 [3-AMINOBENZAMIDE] | Not Active | Not Active | Not Active | Not Active | Not Active | – | Not Active | Not Active | Not Active | Not Active | – | – | – | – | – | –
C[C@H]1O[C@H](O[C@H]2[C@H](O)[C@@H](O)[C@@H](O[C@H]3[C@H](O)[C@@H](O)C(O)O[C@@H]3CO)O[C@@H]2CO)[C@H](O)[C@@H](O)[C@@H]1N[C@H]1C=C(CO)[C@@H](O)[C@H](O)[C@H]1O (some centres undefined) [ACARBOSE] | Not Active | Not Active | Not Active | Not Active | Not Active | – | Not Active | Not Active | Not Active | Not Active | – | – | – | – | – | –
CC[C@H]1[C@@H]2C[C@H]3[C@@H]4N(C)c5ccccc5[C@]45C[C@@H]([C@@H]2[C@H]5O)N3[C@@H]1O [AJMALINE] | Not Active | Not Active | Not Active | Not Active | Not Active | – | Not Active | Not Active | Not Active | Not Active | – | – | – | – | – | –
NC12CC3CC(CC(C3)C1)C2 [AMANTADINE] | Not Active | Not Active | Not Active | Not Active | Not Active | – | Not Active | – | – | Not Active | – | – | – | – | – | –
NCCCNCCSP(=O)(O)O [AMIFOSTINE] | Not Active | Not Active | Not Active | Not Active | Not Active | – | Not Active | Not Active | Not Active | Not Active | – | – | – | – | – | –
CN(C)CCC=C1c2ccccc2CCc2ccccc21 [AMITRIPTYLINE] | – | Not Active | Not Active | Not Active | Not Active | – | Not Active | Not Active | Not Active | Not Active | 351 nM | 132 nM | – | – | – | –
CC(=O)Oc1ccccc1C(=O)O [ASPIRIN] | Not Active | Not Active | Not Active | Not Active | Not Active | – | Not Active | Not Active | Not Active | Not Active | – | – | – | – | – | –
CC(C)c1c(C(=O)Nc2ccccc2)c(-c2ccccc2)c(-c2ccc(F)cc2)n1CC[C@@H](O)C[C@@H](O)CC(=O)O [ATORVASTATIN] | Not Active | Not Active | Not Active | Not Active | Not Active | – | Not Active | Not Active | Not Active | Not Active | – | – | – | – | – | –
CC(=O)OC[C@H]1O[C@@H](n2ncc(=O)[nH]c2=O)[C@H](OC(C)=O)[C@@H]1OC(C)=O [AZARIBINE] | Not Active | Not Active | Not Active | Not Active | Not Active | – | Not Active | Not Active | Not Active | Not Active | – | – | – | – | – | –
ClC(Cl)(Cl)Cl [CARBON TETRACHLORIDE] | Not Active | Not Active | Not Active | Not Active | Not Active | – | Not Active | – | – | Not Active | – | – | – | – | – | –
CC(=O)OCC(=O)[C@@]12OC(C)(C)O[C@@H]1C[C@H]1[C@@H]3C[C@H](F)C4=CC(=O)C=C[C@]4(C)[C@@]3(F)[C@@H](O)C[C@@]12C [FLUOCINONIDE] | Not Active | Not Active | Not Active | Not Active | Not Active | – | Not Active | – | – | Not Active | – | – | – | – | – | –
N[C@@H](Cn1ccc(=O)c(O)c1)C(=O)O [L-MIMOSINE] | Not Active | Not Active | Not Active | Not Active | Not Active | – | Not Active | – | – | Not Active | – | – | – | – | – | –
C[C@@H]1C/C=C/C=C/C=C/C=C/[C@H](O[C@@H]2O[C@H](C)[C@@H](O)[C@H](N)[C@@H]2O)C[C@@H]2O[C@](O)(C[C@@H](O)C[C@H]3O[C@@H]3/C=C/C(=O)O1)C[C@H](O)[C@H]2C(=O)O [NATAMYCIN] | Not Active | Not Active | Not Active | Not Active | Not Active | – | Not Active | – | – | Not Active | – | – | – | – | – | –
COLISTIN | Not Active | Not Active | Not Active | Not Active | Not Active | – | Not Active | Not Active | Not Active | – | – | – | Not Active | Not Active | Not Active | Not Active
